≈ marks a conversion by molar mass, not a printed value.
How the values were obtained:
Anas platyrhynchos = conditions: acute; oral; unspecified; mortality
Oryctolagus sp. = conditions: developmental; development
Oncorhynchus mykiss = conditions: for LC50: acute, duration: 96 hours, mortality
Bibionidae = conditions: chronic/long-term; duration: 22 days; other
Neomysis kadiakensis = conditions: for LC50: acute, mortality
Apis mellifera = conditions: acute, mortality
Tagia sp. = conditions: for NOEC: chronic/long-term, duration: 56 days, reproduction
Folsomia candida = conditions: chronic/long-term; duration: 28 days; mortality

## CS(=O)(=O)c1cc(C(F)(F)F)ccc1C(=O)c1cnoc1C1CC1 [Isoxaflutole]
Anas platyrhynchos
  LD50: > 2150 mg/kg-day
Oryctolagus sp.
  NOAEL: 5 mg/kg-day
Oncorhynchus mykiss
  LC50: > 1.7 µg/mL
Oncorhynchus mykiss; chronic/long-term, duration: 28 days, growth
  NOEC: 0.08 mg/L
Bibionidae
  NOEC: 0.1 mg/L
Colinus virginianus; acute, oral, mortality
  LD50: > 2150 mg/kg-day
Neomysis kadiakensis; duration: 48 hours
  LC50: > 0.077 µg/mL
Neomysis kadiakensis; chronic/long-term, other
  NOEC: 0.001 mg/L
Apis mellifera; dermal
  LD50: > 100 µg/piece
Apis mellifera; oral, unspecified
  LD50: > 109 µg/piece
Tagia sp.; acute, duration: 14 days, mortality
  LC50: > 500 mg/kg
Tagia sp.
  NOEC: 8.9 mg/kg
Rattus norvegicus; acute, mortality
  LD50: > 5000 mg/kg
Rattus norvegicus; chronic, duration: 2 years, histopathology: nonneoplastic
  NOAEL: 2 mg/kg-day
Rattus norvegicus; reproduction developmental, organ weight
  NOAEL: 2 mg/kg-day

## CS(=O)(=O)c1cc(C(F)(F)F)ccc1C(=O)O [2-Methylsulfonyl-4-trifluoromethylbenzoic acid]
Rattus norvegicus; subchronic, duration: 90 days, M
  NOAEL: 769 mg/kg-day

## CS(=O)(=O)c1cc(C(F)(F)F)ccc1C(=O)C(C#N)C(=O)C1CC1 (configuration not stated)
Folsomia candida
  NOEC: > 100 mg/kg
Oncorhynchus mykiss
  LC50: > 15 µg/mL
Colinus virginianus; chronic, reproduction
  NOAEL: 25 mg/kg-day
Neomysis kadiakensis; duration: 48 hours
  LC50: 24 µg/mL (≈ 66.8 µM)
Neomysis kadiakensis; duration: 96 hours
  LC50: 3.7 µg/mL (≈ 10.3 µM)
Tagia sp.
  NOEC: 9 mg/kg
